Assay results taken from publication PMC7932521, “2-aminobenzimidazoles for leishmaniasis: From initial hit discovery to in vivo profiling” (PLoS Neglected Tropical Diseases, 2021).
Like-named read-outs stand apart in the source and are kept apart here.

Experiments:
[1] = test system: Leishmania infantum MHOM/MA(BE)/67/ITMAP263 amastigotes; assay: L. infantum intracellular amastigote assay in PMM; type: cell-based; details: Leishmania infantum
In short: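 Mouse peritoneal macrophages infected with hamster spleen-derived amastigotes (2 h, 37°C), then exposed to 4-fold dilutions from 64 μM (DMSO <1%) for 5 days at 37°C, 5% CO2. Burden scored microscopically after Giemsa staining as percent reduction vs untreated wells; IC50 as geometric mean of ≥2 experiments.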

[2] = test system: L. infantum (MHOM/BR/2005/NLC) strain expressing luciferase; type: in vivo, Leishmania infantum; details: 40 mg/kg/day oral, 5 days, and washout
Experimental: Groups of female BALB/c mice (n = 5) were infected with 10^8 stationary phase promastigotes of L. infantum chagasi-LUC in a final volume of 100 μL by the intraperitoneal route. At day 14 post-infection, groups were orally treated for 5 days with either drug vehicle only (10% ethanol, 40% PEG400 and 0.4% Tween80 in saline buffer—pH adjusted to 9), miltefosine (40 mg/kg QD) or with compounds 29 and 39 (25 mg/kg QD). Light emission in the ventral abdominal cavity of infected animals was recorded by bioimaging (IVIS Spectrum, Caliper Life Sciences) on 14, 19- and 24-days post-infection. Before imaging, mice received 75 mg/kg VivoGlo™ Luciferin (Promega Corporation) (i.p.) and were anesthetized in a 2% isoflurane atmosphere (Cristália). Animals were then transferred to the imaging chamber and kept in a 2% isoflurane atmosphere. Emitted photons were collected using the high resolution (medium binning) mode. Total photon emission from a defined region of interest (ROI) corresponding to the whole abdominal area was registered. The same ROI was applied to all animals in any given group. Images were acquired 15 min after luciferin injection. Total photon emission from each mouse was quantified with Living Image software version 4.3.1 (Caliper Life Sciences), and results were expressed as the number of photons/s/ROI subtracted from the corresponding ROI in uninfected animals. The detected signal was presented as a pseudocolor image representing light intensity (red = most intense and blue = least intense) and superimposed on the gray scale reference image.

[3] = test system: L. braziliensis MHOM/BR/94/H3227; assay: VL/CL panel, intracellular amastigotes; type: cell-based; details: Leishmania braziliensis; average; read-out: IC-50 L. braziliensis MHOM/BR/94/H3227
Experimental: (§1) For the antileishmania in vitro assays, 3×10^4 PMM/well were seeded in 96-well plates. After 24h, 5×10^5 amastigotes/well were added and incubated for 2h at 37°C. Next, the compounds in 4-fold serial dilutions were added and the plates were further incubated for 5 days (37°C, 5% CO2). Parasite burdens were assessed using an inverted microscope after Giemsa staining. The results were expressed as percent reduction in parasite burdens compared to negative control wells (100% growth) and IC50 values were determined. Values represent the geometric mean of at least two independent experiments. Miltefosine was used as the positive control in all plates.

[4] = test system: L. donovani MHOM/ NP/2003/ BPK282/0-cl4; assay: VL/CL panel, intracellular amastigotes; type: cell-based; details: Leishmania donovani; average; read-out: IC-50 L. donovani MHOM/ NP/2003/ BPK282/0-cl4
Experimental: as §1

[5] = test system: L. donovani MHOM/ET/2007/LLM-1600; assay: VL/CL panel, intracellular amastigotes; type: cell-based; details: Leishmania donovani; average; read-out: IC-50 L. donovani MHOM/ET/2007/LLM-1600
Experimental: as §1

[6] = test system: L. donovani MHOM/NP/03/BPK275/0-cl18; assay: VL/CL panel, intracellular amastigotes; type: cell-based; details: Leishmania donovani; average; read-out: IC-50 L. donovani MHOM/NP/03/BPK275/0-cl18
Experimental: as §1

[7] = test system: L. guyanensis MHOM/PE/02/PER 054/0; assay: VL/CL panel, intracellular amastigotes; type: cell-based; details: Leishmania guyanensis; average; read-out: IC-50 L. guyanensis MHOM/PE/02/PER 054/0
Experimental: as §1

[8] = test system: L. infantum LEM3323-cl4 MIL; assay: VL/CL panel, intracellular amastigotes; type: cell-based; details: Leishmania infantum, read-out: IC-50 L. infantum LEM3323-cl4 MIL
Experimental: as §1

[9] = test system: L. infantum LEM3323-cl4 PMM; assay: VL/CL panel, intracellular amastigotes; type: cell-based; details: Leishmania infantum, read-out: IC-50 L. infantum LEM3323-cl4 PMM
Experimental: as §1

[10] = test system: L. infantum MHOM/BR/2007/WC (L3015); assay: VL/CL panel, intracellular amastigotes; type: cell-based; details: Leishmania infantum; average; read-out: IC-50 L. infantum MHOM/BR/2007/WC (L3015)
Experimental: as §1

[11] = test system: L. infantum MHOM/ES/2016/LLM-2346; assay: VL/CL panel, intracellular amastigotes; type: cell-based; details: Leishmania infantum; average; read-out: IC-50 L. infantum MHOM/ES/2016/LLM-2346
Experimental: as §1

[12] = test system: L. infantum MHOM/FR/96/LEM3323-cl4; assay: VL/CL panel, intracellular amastigotes; type: cell-based; details: Leishmania infantum; average; read-out: IC-50 L. infantum MHOM/FR/96/LEM3323-cl4
Experimental: as §1

[13] = test system: L. major MHOM/IL/81/Friedlin; assay: VL/CL panel, intracellular amastigotes; type: cell-based; details: Leishmania major; average; read-out: IC-50 L. major MHOM/IL/81/Friedlin
Experimental: as §1

[14] = test system: L. major MHOM/SA/85/JISH118; assay: VL/CL panel, intracellular amastigotes; type: cell-based; details: Leishmania major; average; read-out: IC-50 L. major MHOM/SA/85/JISH118
Experimental: as §1

[15] = test system: L. panamensis MHOM/PA/71/LS94; assay: VL/CL panel, intracellular amastigotes; type: cell-based; details: Leishmania panamensis; average; read-out: IC-50 L. panamensis MHOM/PA/71/LS94
Experimental: as §1

[16] = test system: L. tropica MHOM/AF/2015/HTD7; assay: VL/CL panel, intracellular amastigotes; type: cell-based; details: Leishmania tropica; average; read-out: IC-50 L. tropica MHOM/AF/2015/HTD7
Experimental: as §1

## CCCCCCCCCCCCCCCCOP(=O)([O-])OCC[N+](C)(C)C [Miltefosine, reference compound]
[1]; 120 h, intracellular amastigotes in PMM, 5 days, read-out: L. infantum IC50
  IC50: 11.2 µM
[1]; panel sheet, average, read-out: IC-50 L. infantum MHOM/MA/67/ITMAP263
  IC50: 1.16 µM
[2]
  parasite load (total ventral bioluminescence): undetectable levels
[3]
  IC50: 1 µM
[4]
  IC50: 1.81 µM
[5]
  IC50: 2.01 µM
[6]
  IC50: 2.07 µM
[7]
  IC50: 8.06 µM
[8]
  IC50: 20.3 µM
[9]
  IC50: 2.69 µM
[10]
  IC50: 2.16 µM
[11]
  IC50: 2.07 µM
[12]
  IC50: 2.01 µM
[13]
  IC50: 11.3 µM
[14]
  IC50: 24.1 µM
[15]
  IC50: 1.81 µM
[16]
  IC50: 2.16 µM
